Reference: patent publication US20230365577A1, “Photodynamic Therapy and Diagnosis” (RMW CHO Group Limited, priority 2020, published 2023)

Key:
[1] = Singlet oxygen (1O2) production rate; format: physicochemical
From the text: The production of singlet oxygen (^1O2), cellular phototoxicity and light-independent cytotoxicity (“dark toxicity”) of a number of phyllochlorin analogues were compared against chlorin e4 disodium and Talaporfin sodium (mono-L-aspartyl chlorin e6), the active ingredient of Laserphyrin™.

A549 = assay: Phototoxicity, pan-cancer panel; format: cell-based; details: Homo sapiens, light or radiation study; A549, lung adenocarcinoma
Protocol: (§1) To test for phototoxicity, cells incubated with phyllochlorin analogues (0-10 μM in DMSO) had culture media replaced after 24 hours (as above) and were then exposed to a 652 nm laser (Invion) with laser density at 50 mW/cm^2 for 5 mins (total 15 J/cm^2). Following activation, cells were cultured for a further 24 hours. Media was then replaced with fresh media containing AlamarBlue, and % viable cells remaining assessed as above. Controls included cells treated with phyllochlorin analogues but not activated by laser light; cells without phyllochlorin analogue treatment but with laser light; and untreated controls. All measurements were made in quadruplicate.
(§2) The activity of phyllochlorin analogues against multiple cancer cell types was assessed as above, using compounds 3 and 6 as examples.

B16F10 = assay: Phototoxicity, pan-cancer panel; format: cell-based; details: Mus musculus, B16-F10, light or radiation study; B16F10, melanoma
Protocol: as §1, §2

DLD-1 = assay: Phototoxicity, pan-cancer panel; format: cell-based; details: Homo sapiens, light or radiation study; DLD-1, colorectal adenocarcinoma
Protocol: as §1, §2

MDA-MB-468 = assay: Phototoxicity, pan-cancer panel; format: cell-based; details: Homo sapiens, light or radiation study; MDA-MB-468, breast adenocarcinoma (triple negative)
Protocol: as §1, §2

HH = assay: Phototoxicity, pan-cancer panel; format: cell-based; details: Homo sapiens, light or radiation study, T cell lymphoma
Protocol: as §1, §2

LP9 = assay: Phototoxicity, pan-cancer panel; format: cell-based; details: light or radiation study; LP9, immortalised mesothelial cells
Protocol: as §1, §2

HEK293 = assay: Phototoxicity, pan-cancer panel; format: cell-based; details: Homo sapiens, light or radiation study; HEK293, embryonic kidney
Protocol: as §1, §2

[2] = tested on: ID8 murine ovarian cancer cells; assay: Tumour localisation and retention, model 2 (intraperitoneal ID8 metastatic disease); format: in vivo, C57BL/6 wild type mice
Protocol: Model 2 used C57BL/6 wild type mice implanted intraperitoneally with 1×10^6 ID8 murine ovarian cancer cells. Following a 4 week incubation (at which point metastatic peritoneal disease with macroscopically visible tumour deposits was established), mice received compound 6 by either oral gavage (ORAL: 2.5 mg/kg), intravenous injection (IV: 1.0 mg/kg), or intraperitoneal injection (IP: 1.0 mg/kg). Quantitative imaging was performed as above; however, due to the disseminated nature of ovarian cancer, imaging was performed at autopsy, using blue light (400 nm) illumination to visualise red fluorescence associated with compound 6 in tumour deposits.

Question: For `C=Cc1c(C)c2cc3nc(c(C)c4cc(C)c(cc5nc(cc1[nH]2)C(C)=C5CC)[nH]4)[C@@H](CCC(=O)N(C)CCCS[C@@H]1O[C@H](CO)[C@@H](O)[C@H](O)[C@H]1O)[C@@H]3C` [Compound 6, 3-((7S,8S)-18-ethyl-2,5,8,12,17-pentamethyl-13-vinyl-7H,8H-porphyrin-7-yl)-N-methyl-N-(3-(((2S,3R,4S,5S,6R)-3,4,5-trihydroxy-6-(hydroxymethyl)tetrahydro-2H-pyran-2-yl)thio)propyl)propanamide], which “Singlet Oxygen Production (slope) 1O2” value [1] is on record?
Answer: Its value is 1700.0.

Question: And the IC90 (A549)?
Answer: The IC90 was 140 nM.

Question: What about the IC90 (B16F10) of the same compound?
Answer: Its IC90 is 640 nM.

Question: What about the IC90 (DLD-1) of the same compound?
Answer: The IC90 was 330 nM.

Question: What about the IC90 (MDA-MB-468) of the same compound?
Answer: The IC90 was 70 nM.

Question: What about the IC90 (HH) of the same compound?
Answer: The IC90 was 30 nM.

Question: What about the IC90 (LP9) of the same compound?
Answer: The IC90 was 30 nM.

Question: What about the IC90 (HEK293) of the same compound?
Answer: Its IC90 is 200 nM.

Question: And the “Localisation into metastatic nodules” value ([2]; IP 1.0 mg/kg)?
Answer: The value was “rapid and highly selective localisation”.

Question: And the “Retention in tumour following injection” value ([2]; IV 1.0 mg/kg)?
Answer: The value was “at least 24 hours”.

Question: And the “Time of peak tumour distribution” value ([2]; IV 1.0 mg/kg)?
Answer: Its value is 4 h.
